Patent US12496348B2, “Small molecule target bromo/acetyl proteins and uses thereof” (DANA-FARBER CANCER INSTITUTE, INC., priority 2019, dated 2025)
Where two headings read alike, the source gives them in different places.

Test system: Kelly Neuroblastoma cells
Experiment: ATPlite Luminescence viability assay, Kelly neuroblastoma cells, 72 h
Type: cell-based
Conditions: Kelly Neuroblastoma cells, ATPlite
Protocol: Kelly Neuroblastoma cells were seeded at 1,000 cells per well in 384 well, white plates and were treated in a dose-dependent manner for 72 h.

[1] = class symbols, read-out: IC50 of inventive bispecific compounds

Structure (SMILES)	IC50 [1] [µM]	IC50 (read-out: IC50) [µM]
Cc1noc(C)c1-c1ccc2nc(-c3ccc(N4CCN(C(=O)CCOCCOCCOCCNC(=O)COc5cccc6c5C(=O)N(C5CCC(=O)NC5=O)C6=O)CC4)cc3)c(NC3CCCCC3)n2c1 (stereo not drawn) [Compound 4, N-(2-(2-(2-(3-(4-(4-(3-(cyclohexylamino)-6-(3,5-dimethylisoxazol-4-yl)imidazo[1,2-a]pyridin-2-yl)phenyl)piperazin-1-yl)-3-oxopropoxy)ethoxy)ethoxy)ethyl)-2-((2-(2,6-dioxopiperidin-3-yl)-1,3-dioxoisoindolin-4-yl)oxy)acetamide]	> 10	–
Cc1noc(C)c1-c1ccn2c(NCc3ccccc3)c(-c3ccc(N4CCN(C(=O)CCOCCOCCOCCOCCOCCOCCNc5cccc6c5C(=O)N(C5CCC(=O)NC5=O)C6=O)CC4)cc3)nc2c1 (stereo not drawn) [Compound 5, 4-((21-(4-(4-(3-(benzylamino)-7-(3,5-dimethylisoxazol-4-yl)imidazo[1,2-a]pyridin-2-yl)phenyl)piperazin-1-yl)-21-oxo-3,6,9,12,15,18-hexaoxahenicosyl)amino)-2-(2,6-dioxopiperidin-3-yl)isoindoline-1,3-dione]	> 10	–
Cc1noc(C)c1-c1ccn2c(NCc3ccccc3)c(-c3ccc(N4CCN(C(=O)CCOCCOCCOCCNc5cccc6c5C(=O)N(C5CCC(=O)NC5=O)C6=O)CC4)cc3)nc2c1 (stereo not drawn) [Compound 6, 4-((2-(2-(2-(3-(4-(4-(3-(benzylamino)-7-(3,5-dimethylisoxazol-4-yl)imidazopyridin-2-yl)phenyl)piperazin-1-yl)-3-oxopropoxy)ethoxy)ethoxy)ethyl)amino)-2-(2,6-dioxopiperidin-3-yl)isoindoline-1,3-dione]	1 to 10	1.27
Cc1noc(C)c1-c1ccn2c(NC3CCCCC3)c(CCc3ccc(NC(=O)CCCCCCCCCCCNc4cccc5c4C(=O)N(C4CCC(=O)NC4=O)C5=O)cc3)nc2c1 (stereo not drawn) [Compound 9, N-(4-(2-(3-(cyclohexylamino)-7-(3,5-dimethylisoxazol-4-yl)imidazo[1,2-a]pyridin-2-yl)ethyl)phenyl)-12-((2-(2,6-dioxopiperidin-3-yl)-1,3-dioxoisoindolin-4-yl)amino)dodecanamide]	> 10	–
Cc1noc(C)c1-c1ccn2c(NC3CCCCC3)c(CCc3ccc(NC(=O)CCCCCCCCCCCNC(=O)COc4cccc5c4C(=O)N(C4CCC(=O)NC4=O)C5=O)cc3)nc2c1 (stereo not drawn) [Compound 10, N-(4-(2-(3-(cyclohexylamino)-7-(3,5-dimethylisoxazol-4-yl)imidazo[1,2-a]pyridin-2-yl)ethyl)phenyl)-12-(2-((2-(2,6-dioxopiperidin-3-yl)-1,3-dioxoisoindolin-4-yl)oxy)acetamido)dodecanamide]	> 10	–
Cc1noc(C)c1-c1ccn2c(NC3CCCCC3)c(CCc3ccc(NC(=O)CCCCCCCNc4cccc5c4C(=O)N(C4CCC(=O)NC4=O)C5=O)cc3)nc2c1 (stereo not drawn) [Compound 13, N-(4-(2-(3-(cyclohexylamino)-7-(3,5-dimethylisoxazol-4-yl)imidazo[1,2-a]pyridin-2-yl)ethyl)phenyl)-8-((2-(2,6-dioxopiperidin-3-yl)-1,3-dioxoisoindolin-4-yl)amino)octanamide]	> 10	–
Cc1noc(C)c1-c1ccn2c(NC3CCCCC3)c(CCc3ccc(NC(=O)CCCCCNc4ccc5c(c4)C(=O)N(C4CCC(=O)NC4=O)C5=O)cc3)nc2c1 (stereo not drawn) [Compound 14, N-(4-(2-(3-(cyclohexylamino)-7-(3,5-dimethylisoxazol-4-yl)imidazo[1,2-a]pyridin-2-yl)ethyl)phenyl)-6-((2-(2,6-dioxopiperidin-3-yl)-1,3-dioxoisoindolin-5-yl)amino)hexanamide]	1 to 10	–
Cc1ncsc1-c1ccc(CNC(=O)[C@H]2C[C@H](O)CN2C(=O)[C@H](NC(=O)COCCOCCOCCNC(=O)CCC(=O)Nc2ccc(CCc3nc4cc(-c5c(C)noc5C)ccn4c3NC3CCCCC3)cc2)C(C)(C)C)cc1 [Compound 15, N1-(4-(2-(3-(cyclohexylamino)-7-(3,5-dimethylisoxazol-4-yl)imidazo[1,2-a]pyridin-2-yl)ethyl)phenyl)-N4-((R)-13-((2R,4S)-4-hydroxy-2-((4-(4-methylthiazol-5-yl)benzyl)carbamoyl)pyrrolidine-1-carbonyl)-14,14-dimethyl-11-oxo-3,6,9-trioxa-12-azapentadecyl)succinamide]	> 10	–
Cc1noc(C)c1-c1ccn2c(NC3CCCCC3)c(CCc3ccc(NC(=O)CCOCCOCCOCCOCCOCCOCCNc4cccc5c4C(=O)N(C4CCC(=O)NC4=O)C5=O)cc3)nc2c1 (stereo not drawn) [Compound 16, N-(4-(2-(3-(cyclohexylamino)-7-(3,5-dimethylisoxazol-4-yl)imidazo[1,2-a]pyridin-2-yl)ethyl)phenyl)-1-((2-(2,6-dioxopiperidin-3-yl)-1,3-dioxoisoindolin-4-yl)amino)-3,6,9,12,15,18-hexaoxahenicosan-21-amide]	1 to 10	–
Cc1noc(C)c1-c1ccn2c(NC3CCCCC3)c(CCc3ccc(NC(=O)C4CCC(Nc5cccc6c5C(=O)N(C5CCC(=O)NC5=O)C6=O)CC4)cc3)nc2c1 (stereo not drawn) [Compound 17, N-(4-(2-(3-(cyclohexylamino)-7-(3,5-dimethylisoxazol-4-yl)imidazo[1,2-a]pyridin-2-yl)ethyl)phenyl)-4-((2-(2,6-dioxopiperidin-3-yl)-1,3-dioxoisoindolin-4-yl)amino)cyclohexane-1-carboxamide]	1 to 10	–
Cc1noc(C)c1-c1ccn2c(NC3CCCCC3)c(CCc3ccc(NC(=O)c4ccc(CNc5cccc6c5C(=O)N(C5CCC(=O)NC5=O)C6=O)cc4)cc3)nc2c1 (stereo not drawn) [Compound 18, N-(4-(2-(3-(cyclohexylamino)-7-(3,5-dimethylisoxazol-4-yl)imidazo[1,2-a]pyridin-2-yl)ethyl)phenyl)-4-(((2-(2,6-dioxopiperidin-3-yl)-1,3-dioxoisoindolin-4-yl)amino)methyl)benzamide]	> 10	–
COc1ccc(CCc2nc3cc(-c4c(C)noc4C)ccc3n2C[C@H](C)N2CCN(C(=O)CCOCCOCCOCCNc3ccc4c(c3)C(=O)N(C3CCC(=O)NC3=O)C4=O)CC2)cc1Cl (stereo partly drawn) [Compound 19, 5-((2-(2-(2-(3-(4-((S)-1-(2-(3-chloro-4-methoxyphenethyl)-5-(3,5-dimethylisoxazol-4-yl)-1H-benzo[d]imidazol-1-yl)propan-2-yl)piperazin-1-yl)-3-oxopropoxy)ethoxy)ethoxy)ethyl)amino)-2-(2,6-dioxopiperidin-3-yl)isoindoline-1,3-dione]	> 10	–
COc1ccc(CCc2nc3cc(-c4c(C)noc4C)ccc3n2C[C@H](C)N2CCN(C(=O)CCCCCCCCCNc3ccc4c(c3)C(=O)N(C3CCC(=O)NC3=O)C4=O)CC2)cc1Cl (stereo partly drawn) [Compound 20, 5-((10-(4-((S)-1-(2-(3-chloro-4-methoxyphenethyl)-5-(3,5-dimethylisoxazol-4-yl)-1H-benzo[d]imidazol-1-yl)propan-2-yl)piperazin-1-yl)-10-oxodecyl)amino)-2-(2,6-dioxopiperidin-3-yl)isoindoline-1,3-dione]	> 10	–
COc1ccc(CCc2nc3cc(-c4c(C)noc4C)ccc3n2C[C@H](C)N2CCN(C(=O)CCCCCNc3ccc4c(c3)C(=O)N(C3CCC(=O)NC3=O)C4=O)CC2)cc1Cl (stereo partly drawn) [Compound 21, 5-((6-(4-((S)-1-(2-(3-chloro-4-methoxyphenethyl)-5-(3,5-dimethylisoxazol-4-yl)-1H-benzo[d]imidazol-1-yl)propan-2-yl)piperazin-1-yl)-6-oxohexyl)amino)-2-(2,6-dioxopiperidin-3-yl)isoindoline-1,3-dione]	> 10	–
Cc1noc(C)c1-c1ccc2c(c1)nc(CCc1ccc(NC(=O)CCOCCOCCOCCNc3cccc4c3C(=O)N(C3CCC(=O)NC3=O)C4=O)cc1)n2CCN1CCOCC1 (stereo not drawn) [Compound 22, N-(4-(2-(5-(3,5-dimethylisoxazol-4-yl)-1-(2-morpholinoethyl)-1H-benzo[d]imidazol-2-yl)ethyl)phenyl)-3-(2-(2-(2-((2-(2,6-dioxopiperidin-3-yl)-1,3-dioxoisoindolin-4-yl)amino)ethoxy)ethoxy)ethoxy)propanamide]	> 10	–
Cc1noc(C)c1-c1ccc2c(c1)nc(CCc1ccc(NC(=O)CCCCCCCCCCCNc3cccc4c3C(=O)N(C3CCC(=O)NC3=O)C4=O)cc1)n2CCN1CCOCC1 (stereo not drawn) [Compound 23, N-(4-(2-(5-(3,5-dimethylisoxazol-4-yl)-1-(2-morpholinoethyl)-1H-benzo[d]imidazol-2-yl)ethyl)phenyl)-12-((2-(2,6-dioxopiperidin-3-yl)-1,3-dioxoisoindolin-4-yl)amino)dodecanamide]	> 10	–
Cc1noc(C)c1-c1ccc2c(c1)nc(CCc1ccc(NC(=O)CCCCCCCCCCCNC(=O)COc3cccc4c3C(=O)N(C3CCC(=O)NC3=O)C4=O)cc1)n2CCN1CCOCC1 (stereo not drawn) [Compound 24, N-(4-(2-(5-(3,5-dimethylisoxazol-4-yl)-1-(2-morpholinoethyl)-1H-benzo[d]imidazol-2-yl)ethyl)phenyl)-12-(2-((2-(2,6-dioxopiperidin-3-yl)-1,3-dioxoisoindolin-4-yl)oxy)acetamido)dodecanamide]	> 10	–
Cc1noc(C)c1-c1ccc2c(c1)nc(CCc1ccc(NC(=O)CCCCCNc3cccc4c3C(=O)N(C3CCC(=O)NC3=O)C4=O)cc1)n2CC(C)N1CCOCC1 (stereo not drawn) [Compound 25, N-(4-(2-(5-(3,5-dimethylisoxazol-4-yl)-1-(2-morpholinopropyl)-1H-benzo[d]imidazol-2-yl)ethyl)phenyl)-6-((2-(2,6-dioxopiperidin-3-yl)-1,3-dioxoisoindolin-4-yl)amino)hexanamide]	> 10	–
Cc1noc(C)c1-c1ccc2c(c1)nc(CCc1ccc(NC(=O)CCCCCCCNc3cccc4c3C(=O)N(C3CCC(=O)NC3=O)C4=O)cc1)n2CC(C)N1CCOCC1 (stereo not drawn) [Compound 26, N-(4-(2-(5-(3,5-dimethylisoxazol-4-yl)-1-(2-morpholinopropyl)-1H-benzo[d]imidazol-2-yl)ethyl)phenyl)-8-((2-(2,6-dioxopiperidin-3-yl)-1,3-dioxoisoindolin-4-yl)amino)octanamide]	> 10	–
Cc1noc(C)c1-c1ccc2c(c1)nc(CCc1ccc(NC(=O)CCOCCOCCOCCNc3cccc4c3C(=O)N(C3CCC(=O)NC3=O)C4=O)cc1)n2CC(C)N1CCOCC1 (stereo not drawn) [Compound 27, N-(4-(2-(5-(3,5-dimethylisoxazol-4-yl)-1-(2-morpholinopropyl)-1H-benzo[d]imidazol-2-yl)ethyl)phenyl)-3-(2-(2-(2-((2-(2,6-dioxopiperidin-3-yl)-1,3-dioxoisoindolin-4-yl)amino)ethoxy)ethoxy)ethoxy)propanamide]	> 10	–
